This passage reports IC50 results from US12065416B2, “cGAS antagonist compounds” (IMMUNESENSOR THERAPEUTICS, INC., priority 2016, dated 2024).

As a reminder, the IC50 is the point on the concentration scale where inhibition reaches its midpoint.

For assay [1], the target named is T1, recombinant cGAS (aa147-522) (Homo sapiens, UniProt Q8N884).
T1 construct: recombinant cGAS (aa147-522); His6-SUMO (N, cleaved yes); made in house; host or cells: E. coli BL21/pLys
In words: In vitro assay for inhibition of cGAS activity (ATP consumption, Kinase Glo). The format is biochemical. To be noted: 37° C. 20 minutes, read-out: Activity (Inhibition of cGAS enzyme activity in vitro, IC50). Summed up:
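Human cGAS (aa147-522) at 1.5 ng/μL incubated with serially diluted compound at 37° C for 20 min; remaining ATP read by Kinase Glo luminescence. IC50 from percent ATP consumption plotted against log compound concentration.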
In general terms: In Kinase-Glo more light means more ATP remaining.

Assay [2] concerns cGAS activity in THP1 cells. The experiment in a line: Cellular assay: ISRE-Gaussia luciferase reporter THP1 cells transfected with ISD (Interferon Stimulatory DNA). It is filed as cell-based. To be noted: Homo sapiens, THP-1; ISRE-Gaussia luciferase reporter THP1 cells transfected with 2 μg/mL ISD, 16 hours; read-out: THP1-ISD (Inhibition of cGAS activity in THP1 cells, IC50). On the procedure:
A reporter THP1 cell line harboring a gene encoding Gaussia Luciferase under the control of 5 tandem repeats of interferon-stimulated response elements (ISRE) was used to test inhibition of cGAS activity by synthetic compounds in human cells. These cells were plated on 96-well plates at 0.3×10^6/well and incubated with various concentrations of compounds or DMSO for 5 min, followed by transfection of 2 μg/mL of ISD (Interferon Stimulatory DNA, a 45 bp DNA oligo) or mock transfected using lipofectamine 2000 (Life Technology) method, according to manufacturer's instructions. 16 hours later, 15 μL of the media from each well is transferred to a new plate, 50 μL of solution containing 50 mM Hepes-NaOH, 50 mM NaCl, 10 mM EDTA, 1 μM of coeleanterazine was added to each well and luminescence was measured immediately. Fold increase in luminescence compared to mock transfection is plotted against concentrations of each compound, and IC50 is calculated using Graphpad. To evaluate the specificity of a compound, the same procedure was performed except that cells were transfected with 2 μg/mL poly(I:C) or infected with Sendai Virus (SeV) at 50 Unit/mL, which are known to activate the RIG-I-MAVS pathway. A specific inhibitory compound should inhibit interferon induction by DNA but have minimal effect on poly(I:C) or Sendai virus induced interferon reporter gene expression.
(In general: In a reporter assay the amount or activity of a reporter protein is the signal.)

Molecules are shown by their SMILES. Where only a bound is given, the exact number is not on record here.

T1 sequence (Q8N884 147-522): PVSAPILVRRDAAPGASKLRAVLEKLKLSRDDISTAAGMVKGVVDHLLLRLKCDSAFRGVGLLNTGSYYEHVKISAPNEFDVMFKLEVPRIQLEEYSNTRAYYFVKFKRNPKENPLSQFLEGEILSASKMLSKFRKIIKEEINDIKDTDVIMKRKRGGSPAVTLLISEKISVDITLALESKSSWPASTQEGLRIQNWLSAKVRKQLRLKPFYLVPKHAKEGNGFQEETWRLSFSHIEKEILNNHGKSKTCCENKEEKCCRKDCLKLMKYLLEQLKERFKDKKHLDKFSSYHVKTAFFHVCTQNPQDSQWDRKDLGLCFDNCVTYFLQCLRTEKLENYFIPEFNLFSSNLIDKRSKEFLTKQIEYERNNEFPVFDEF

With `CN1C(=O)S/C(=C\c2cc(O)c(O)cc2Br)C1=O` [Ex11], the IC50 in assay [1] was not below 10000 nM; in assay [2], 2500 to 10000 nM.
On the same counts, the results for `COc1cc(/C=c2\sc3nccn3c2=O)c(Br)cc1O` [Ex16] are not above 500 nM and 2500 to 10000 nM.
On the same counts, the results for `COc1cc(/C=C2\SC(=O)N(C)C2=O)c(Br)cc1NS(=O)(=O)c1ccccn1` [Ex21] are not below 10000 nM and 2500 to 10000 nM.
`COc1cc(/C=C2\SC(=O)N(C)C2=O)c(Cl)cc1O` [Ex30]: the figures for the IC50 in assay [1] and in assay [2] were not above 500 nM and not above 2500 nM, respectively.
On to `CCOc1cc(/C=C2\SC(=O)N(C)C2=O)c(Br)cc1O` [Ex32], for which the IC50 in assay [1] was not above 500 nM; in assay [2], not above 2500 nM.
On the same counts, the results for `C#CCOc1cc(/C=C2\SC(=O)N(C)C2=O)c(Br)cc1O` [Ex33] are 500 to 10000 nM and 2500 to 10000 nM.
In the case of `COc1cc(/C=C2\SC(=S)N(C)C2=O)c(Br)cc1O` [Ex38], the values for the IC50 in assay [1] and in assay [2] were not above 500 nM and 2500 to 10000 nM, respectively.
As for `CCN1C(=O)S/C(=C\c2cc(OC)c(O)cc2Br)C1=O` [Ex39], the values for the IC50 in assay [1] and in assay [2] were 500 to 10000 nM and 2500 to 10000 nM, respectively.
On the same counts, the results for `COc1cc(/C=C2\Sc3ccccc3C2=O)c(Br)cc1O` [Ex44] are 500 to 10000 nM and not above 2500 nM.
For `COc1cc(/C=C2\Sc3ncccc3C2=O)c(Br)cc1O` [Ex45], the IC50 in assay [1] is not above 500 nM; in assay [2], 2500 to 10000 nM.
Consider `CN1C(=O)S/C(=C\c2cc(OCc3ccncc3)c(O)cc2Br)C1=O` [Ex53], for which the IC50 in assay [1] is 500 to 10000 nM; in assay [2], not above 2500 nM.
Consider `COc1cc(/C=C2\SC(=O)N(C)C2=O)c(Br)cc1NS(=O)(=O)c1cnc(N)s1` [Ex61], for which the IC50 in assay [1] is 500 to 10000 nM; in assay [2] it was not above 2500 nM.
Turning to `CN1C(=O)S/C(=C\c2cc(OCc3cccc4[nH]ccc34)c(O)cc2Br)C1=O` [Ex67], the IC50 in assay [1] lay within 500 to 10000 nM; in assay [2], 2500 to 10000 nM.
On the same counts, the results for `CN1C(=O)S/C(=C\c2cc(OCCc3cnc(N)nc3)c(O)cc2Br)C1=O` [Ex82] are not above 500 nM and not above 2500 nM.
On the same counts, the results for `CN1C(=O)S/C(=C\c2cc(OCc3cccnc3)c(O)cc2Br)C1=O` [Ex90] are not above 500 nM and 2500 to 10000 nM.
On the same counts, the results for `CN1C(=O)S/C(=C\c2cc(OCc3cccnc3)c(O)c(F)c2Br)C1=O` [Ex106] are not above 500 nM and 2500 to 10000 nM.
For the molecule `CN1C(=O)S/C(=C\c2cc(OCc3cnc(Cl)nc3)c(O)c(F)c2Br)C1=O` [Ex107], the values for the IC50 in assay [1] and in assay [2] were 500 to 10000 nM and 2500 to 10000 nM, respectively.
On the same counts, the results for `CCOc1cc(/C=C2\Sc3ncccc3C2=O)c(Br)cc1O` [Ex112] are not above 500 nM and 2500 to 10000 nM.
On the same counts, the results for `O=C1/C(=C/c2cc(OCc3cccnc3)c(O)cc2Br)Sc2ncccc21` [Ex113] are not above 500 nM and 2500 to 10000 nM.
On the same counts, the results for `Cc1ncc(COc2cc(/C=C3\Sc4ncccc4C3=O)c(Br)cc2O)cn1` [Ex114] are not above 500 nM and 2500 to 10000 nM.
As for `O=C1/C(=C/c2cc(OCc3cnc(Cl)nc3)c(O)cc2Br)Sc2ncccc21` [Ex115], the IC50 in assay [1] is not above 500 nM; in assay [2] it was 2500 to 10000 nM.
On the same counts, the results for `Cc1nc(N)ncc1COc1cc(/C=C2\Sc3ncccc3C2=O)c(Br)cc1O` [Ex116] are not above 500 nM and not above 2500 nM.
Consider `Nc1ncc(COc2cc(/C=C3\Sc4ncccc4C3=O)c(Br)cc2O)c(C2CC2)n1` [Ex117], for which the IC50 was not above 500 nM in assay [1] and 2500 to 10000 nM in assay [2].
On the same counts, the results for `CC(Oc1cc(/C=C2\Sc3ncccc3C2=O)c(Br)c(F)c1O)c1cnc(N)nc1` (stereo not shown) [Ex124] are not above 500 nM and 2500 to 10000 nM.
In the case of `CN1C(=O)S/C(=C\c2cc(OCc3cncnc3)c(O)c(F)c2Br)C1=O` [Ex185], the values for the IC50 in assay [1] and in assay [2] were not above 500 nM and 2500 to 10000 nM, respectively.
On the same counts, the results for `CN1C(=O)S/C(=C\c2cc(OCc3cnc(NCc4cccnc4)nc3)c(O)c(F)c2Br)C1=O` [Ex189] are 500 to 10000 nM and 2500 to 10000 nM.
